Each block holds one molecule with its values, some of them ahead of it.
What was measured:
[1] = system: 46 nt NMT1 RNA (GAAA loop), wild-type xanthine riboswitch (RNA, riboswitch) GGAGUAGAAGCGUUCAGCGGCCGAAAGGCCGCCCGGAAAUUGCUCC; assay: ITC; conditions: K+ 50 mM, Mg2+ 10 mM, 50 mM Tris pH 8.0, 25 °C; for binding: RNA (1.4 mM stock) titrated into 0.1 mM ligand, N.D.; for Kd: RNA titrated into 0.1 mM ligand
[2] = system: A9C (RNA, riboswitch) GGAGUAGACGCGUUCAGCGGCCGAAAGGCCGCCCGGAAAUUGCUCC; assay: ITC; conditions: K+ 50 mM, Mg2+ 10 mM; 50 mM Tris pH 8.0, 25 °C; RNA (1.4 mM stock) titrated into 0.1 mM ligand
[3] = system: G10C-U40A (RNA, riboswitch) GGAGUAGAACCGUUCAGCGGCCGAAAGGCCGCCCGGAAAAUGCUCC; assay: ITC; conditions: K+ 50 mM, Mg2+ 10 mM; 50 mM Tris pH 8.0, 25 °C; RNA (1.4 mM stock) titrated into 0.1 mM ligand
[4] = system: C34U (RNA, riboswitch) GGAGUAGAAGCGUUCAGCGGCCGAAAGGCCGCCUGGAAAUUGCUCC; assay: ITC; conditions: K+ 50 mM, Mg2+ 10 mM; 50 mM Tris pH 8.0, 25 °C; 3- to 4-fold decrease
[5] = system: A16G (RNA, riboswitch) GGAGUAGAAGCGUUCGGCGGCCGAAAGGCCGCCCGGAAAUUGCUCC; assay: ITC; conditions: K+ 50 mM, Mg2+ 10 mM; 50 mM Tris pH 8.0, 25 °C; 4-fold less affinity
[6] = system: A8Ap (RNA, riboswitch, 2-aminopurine at 8) GGAGUAGAAGCGUUCAGCGGAAACGCCCGGAAAUUGCUCC; assay: 2-aminopurine fluorescence; conditions: K+ 100 mM, Mg2+ 20 mM; 100 mM Tris-HCl pH 8.4, 20 °C; 0.5 μM RNA, 3 mM xanthine; qualitative
[7] = system: G7A-A8G (RNA, riboswitch) GGAGUAAGAGCGUUCAGCGGCCGAAAGGCCGCCCGGAAAUUGCUCC; assay: ITC; conditions: K+ 50 mM, Mg2+ 10 mM; 50 mM Tris pH 8.0, 25 °C; RNA (1.4 mM stock) titrated into 0.1 mM ligand
[8] = system: original sequence (GCCC loop) of the xanthine riboswitch (RNA, riboswitch) GGAGUAGAAGCGUUCAGCGGCCGCCCGGCCGCCCGGAAAUUGCUCC; assay: ITC; conditions: K+ 50 mM, Mg2+ 10 mM; 50 mM Tris pH 8.0, 25 °C; RNA titrated into 0.1 mM ligand
[9] = system: G10C (RNA, riboswitch) GGAGUAGAACCGUUCAGCGGCCGAAAGGCCGCCCGGAAAUUGCUCC; assay: ITC; conditions: K+ 50 mM, Mg2+ 10 mM; 50 mM Tris pH 8.0, 25 °C; RNA (1.4 mM stock) titrated into 0.1 mM ligand
[10] = system: G12Ap (RNA, riboswitch, 2-aminopurine at 12) GGAGUAGAAGCGUUCAGCGGAAACGCCCGGAAAUUGCUCC; assay: 2-aminopurine fluorescence; conditions: K+ 100 mM, Mg2+ 20 mM; 100 mM Tris-HCl pH 8.4, 20 °C; 0.5 μM RNA, 3 mM xanthine; qualitative
[11] = system: C11G-G35C (RNA, riboswitch) GGAGUAGAAGGGUUCAGCGGCCGAAAGGCCGCCCCGAAAUUGCUCC; assay: ITC; conditions: K+ 50 mM, Mg2+ 10 mM; 50 mM Tris pH 8.0, 25 °C; RNA (1.4 mM stock) titrated into 0.1 mM ligand
[12] = system: A8C (RNA, riboswitch) GGAGUAGCAGCGUUCAGCGGCCGAAAGGCCGCCCGGAAAUUGCUCC; assay: ITC; conditions: K+ 50 mM, Mg2+ 10 mM; 50 mM Tris pH 8.0, 25 °C; RNA (1.4 mM stock) titrated into 0.1 mM ligand
[13] = system: G35C (RNA, riboswitch) GGAGUAGAAGCGUUCAGCGGCCGAAAGGCCGCCCCGAAAUUGCUCC; assay: ITC; conditions: K+ 50 mM, Mg2+ 10 mM; 50 mM Tris pH 8.0, 25 °C; RNA (1.4 mM stock) titrated into 0.1 mM ligand
[14] = system: C34A (RNA, riboswitch) GGAGUAGAAGCGUUCAGCGGCCGAAAGGCCGCCAGGAAAUUGCUCC; assay: ITC; conditions: K+ 50 mM, Mg2+ 10 mM; 50 mM Tris pH 8.0, 25 °C; comparable to wild-type
[15] = system: G7Ap (RNA, riboswitch, 2-aminopurine at 7) GGAGUAGAAGCGUUCAGCGGAAACGCCCGGAAAUUGCUCC; assay: 2-aminopurine fluorescence; conditions: K+ 100 mM, Mg2+ 20 mM; 100 mM Tris-HCl pH 8.4, 20 °C; 0.5 μM RNA, 3 mM xanthine; qualitative
[16] = system: G10A (RNA, riboswitch) GGAGUAGAAACGUUCAGCGGCCGAAAGGCCGCCCGGAAAUUGCUCC; assay: ITC; conditions: K+ 50 mM, Mg2+ 10 mM; 50 mM Tris pH 8.0, 25 °C; RNA (1.4 mM stock) titrated into 0.1 mM ligand
[17] = system: A8U (RNA, riboswitch) GGAGUAGUAGCGUUCAGCGGCCGAAAGGCCGCCCGGAAAUUGCUCC; assay: ITC; conditions: K+ 50 mM, Mg2+ 10 mM; 50 mM Tris pH 8.0, 25 °C; RNA (1.4 mM stock) titrated into 0.1 mM ligand
[18] = system: A6Ap (RNA, riboswitch, 2-aminopurine at 6) GGAGUAGAAGCGUUCAGCGGAAACGCCCGGAAAUUGCUCC; assay: 2-aminopurine fluorescence; conditions: K+ 100 mM, Mg2+ 20 mM; 100 mM Tris-HCl pH 8.4, 20 °C; 0.5 μM RNA, 3 mM xanthine; qualitative
[19] = system: U40C (RNA, riboswitch) GGAGUAGAAGCGUUCAGCGGCCGAAAGGCCGCCCGGAAACUGCUCC; assay: ITC; conditions: K+ 50 mM, Mg2+ 10 mM; 50 mM Tris pH 8.0, 25 °C; RNA (1.4 mM stock) titrated into 0.1 mM ligand
[20] = system: C34G (RNA, riboswitch) GGAGUAGAAGCGUUCAGCGGCCGAAAGGCCGCCGGGAAAUUGCUCC; assay: ITC; conditions: K+ 50 mM, Mg2+ 10 mM; 50 mM Tris pH 8.0, 25 °C; 3- to 4-fold decrease
[21] = system: C11U-G35A (RNA, riboswitch) GGAGUAGAAGUGUUCAGCGGCCGAAAGGCCGCCCAGAAAUUGCUCC; assay: ITC; conditions: K+ 50 mM, Mg2+ 10 mM; 50 mM Tris pH 8.0, 25 °C; RNA (1.4 mM stock) titrated into 0.1 mM ligand
[22] = system: A16G/C33U (RNA, riboswitch) GGAGUAGAAGCGUUCGGCGGCCGAAAGGCCGCUCGGAAAUUGCUCC; assay: ITC; conditions: K+ 50 mM, Mg2+ 10 mM; 50 mM Tris pH 8.0, 25 °C; 4-fold less affinity
[23] = system: C11G (RNA, riboswitch) GGAGUAGAAGGGUUCAGCGGCCGAAAGGCCGCCCGGAAAUUGCUCC; assay: ITC; conditions: K+ 50 mM, Mg2+ 10 mM; 50 mM Tris pH 8.0, 25 °C; RNA (1.4 mM stock) titrated into 0.1 mM ligand
[24] = system: U40A (RNA, riboswitch) GGAGUAGAAGCGUUCAGCGGCCGAAAGGCCGCCCGGAAAAUGCUCC; assay: ITC; conditions: K+ 50 mM, Mg2+ 10 mM; 50 mM Tris pH 8.0, 25 °C; RNA (1.4 mM stock) titrated into 0.1 mM ligand
[25] = system: G12A (RNA, riboswitch) GGAGUAGAAGCAUUCAGCGGCCGAAAGGCCGCCCGGAAAUUGCUCC; assay: ITC; conditions: K+ 50 mM, Mg2+ 10 mM; 50 mM Tris pH 8.0, 25 °C; 7-fold decrease

binding [2]: no
binding [3]: no
binding [4]: yes
binding [5]: yes
binding [6]: yes
binding [7]: no
Kd [8]: 3.6 ± 0.3 µM
binding [9]: no
binding [10]: yes
binding [11]: no
binding [12]: no
binding [13]: no
binding [14]: yes
binding [15]: yes
binding [16]: no
binding [17]: no
binding [18]: yes
binding [19]: no
binding [20]: yes
binding [21]: no
binding [22]: yes
binding [23]: no
binding [24]: no
binding [25]: yes
Kd [1]: 4.4 ± 0.2 µM
Structure (SMILES): O=c1[nH]c(=O)c2[nH]cnc2[nH]1

Kd [1]: 3.0 ± 0.1 µM
Structure (SMILES): O=c1[nH]c(=O)c2[nH]nnc2[nH]1

The next lines start with the molecule.

Structure (SMILES): Nc1ncnc2[nH]cnc12
binding [1]: no

Structure (SMILES): Nc1ncnc2c1ncn2[C@@H]1O[C@H](CO)[C@@H](O)[C@H]1O
binding [1]: no

Structure (SMILES): O=c1[nH]c(=O)c2[nH]c(=O)[nH]c2[nH]1
Kd [1]: 20.4 ± 1.7 µM

Structure (SMILES): O=c1[nH]cnc2c1ncn2[C@@H]1O[C@H](CO)[C@@H](O)[C@H]1O
binding [1]: no

Structure (SMILES): O=c1[nH]cnc2nc[nH]c12
binding [1]: no

Source: article PMC8266621 (2021)
